Data from US20200369716A1, “SOLID-PHASE SYNTHESIS OF PROTEIN-POLYMER CONJUGATES ON IMMOBILIZATION SUPPORTS” (Carnegie Mellon University, priority 2017, published 2020).

How the values were obtained:
[1] = target: T1, Avidin from Gallus gallus egg white, Avi-pCBMA conjugate by PARIS (Gallus gallus, UniProt P02701); assay: Binding affinity of HABA to Avi-pCBMA conjugate, PARIS; conditions: 300 μM HABA
T1 construct: purchased Lee Biosolutions (Maryland Heights, Mo.); host or cells: Gallus gallus egg white
Protocol: (§1) α-Chymotrypsin (CT) from bovine pancreas (type II), lysozyme from chicken egg white, acetylcholinesterase from Electrophorus electricus (electric eel, type VI-S), uricase from porcine liver (type V), and agarase from Pseudomonas atlantica were purchased from Sigma Aldrich (St Louis, Mo.). Avidin from Gallus gallus egg white was purchased from Lee Biosolutions (Maryland Heights, Mo.). Protein surface active ATRP initiator (NHS-ATRP initiator) was prepared as described elsewhere (Murata et al., supra).
(§2) Absorption at 500 nm of 300 μM HABA solution in phosphate buffered saline without calcium or magnesium (986 μL, Lonza) was measured using UV-VIS spectrometer. 16 μL, of the conjugates solution (1.25 μM of avidin in deionized water) was added to the HABA solution and incubated at room temperature for 1 minute, and then absorption at 500 nm was measured. Change in absorbance at 500 nm was used to determine bound HABA to the conjugate.

[2] = target: Avidin from Gallus gallus egg white, Avi-pCBMA conjugate by solution synthesis (Gallus gallus, UniProt P02701); assay: Binding affinity of HABA to Avi-pCBMA conjugate, solution; conditions: 300 μM HABA, 1 minute, room temperature, [Avi]0 = 2 μM, ε500 = 34000 M^−1
Protocol: as §1, §2

[3] = test system: C[C@H](NC(=O)CCC(=O)O)C(=O)N[C@@H](C)C(=O)N1CCC[C@H]1C(=O)N[C@@H](Cc1ccccc1)C(=O)Nc1ccc([N+](=O)[O-])cc1; assay: purified protein, by the assay type; conditions: other: native CT, pH 8, 25° C.
Protocol: Suc-AAPF-pNA (0-125 μL of 9.60 mM in DMSO) was mixed with sodium phosphate buffer (865-950 μL of 100 mM buffer, pH 8). Native CT or conjugate solutions (10 μL, 3.9 μM of CT) was added to the substrate solution. The initial substrate hydrolysis rate was monitored by recording the increase in absorbance at 412 nm using a UV-VIS absorbance spectrometer with a temperature-controlled cell holder at 25° C. Michaelis-Menten parameters were determined by nonlinear curve fitting of initial rate versus substrate concentration plots using Enzfitter software.

[4] = target: T2, acetylcholinesterase (AChE) from Electrophorus electricus (electric eel, type VI-S), AChE-pCBMA conjugate by PARIS (Electrophorus electricus, UniProt O42275); assay: Michaelis-Menten kinetics of AChE-catalyzed hydrolysis of acetylthiocholine iodide, PARIS conjugate; assay type: biochemical; conditions: pH 7.4, 37° C.
T2 construct: purchased Sigma Aldrich (St Louis, Mo.); host or cells: Electrophorus electricus (electric eel)
Protocol: as §1
Acetylthiocholine iodide (0-100 μL of 10 mM in 100 mM sodium phosphate buffer (pH 7.4)) and 10 μL of DTNB solution (50 mM in DMSO) were mixed with 100 mM sodium phosphate buffer (980-880 μL, pH 7.4). Conjugate solution (10 μL, 5.5 μM of AChE) was added to the substrate solution. The initial substrate hydrolysis rate was monitored by recording the increase in absorbance at 412 nm using a UV-VIS absorbance spectrometer with a temperature-controlled cell holder at 37° C. Michaelis-Menten parameters were determined by nonlinear curve fitting of initial rate versus substrate concentration plots using Enzfitter software.

T1 sequence (P02701 25-152): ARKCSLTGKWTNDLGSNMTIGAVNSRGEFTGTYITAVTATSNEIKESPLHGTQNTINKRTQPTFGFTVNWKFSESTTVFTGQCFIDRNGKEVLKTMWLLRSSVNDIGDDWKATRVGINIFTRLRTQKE
T2 sequence (O42275 24-633): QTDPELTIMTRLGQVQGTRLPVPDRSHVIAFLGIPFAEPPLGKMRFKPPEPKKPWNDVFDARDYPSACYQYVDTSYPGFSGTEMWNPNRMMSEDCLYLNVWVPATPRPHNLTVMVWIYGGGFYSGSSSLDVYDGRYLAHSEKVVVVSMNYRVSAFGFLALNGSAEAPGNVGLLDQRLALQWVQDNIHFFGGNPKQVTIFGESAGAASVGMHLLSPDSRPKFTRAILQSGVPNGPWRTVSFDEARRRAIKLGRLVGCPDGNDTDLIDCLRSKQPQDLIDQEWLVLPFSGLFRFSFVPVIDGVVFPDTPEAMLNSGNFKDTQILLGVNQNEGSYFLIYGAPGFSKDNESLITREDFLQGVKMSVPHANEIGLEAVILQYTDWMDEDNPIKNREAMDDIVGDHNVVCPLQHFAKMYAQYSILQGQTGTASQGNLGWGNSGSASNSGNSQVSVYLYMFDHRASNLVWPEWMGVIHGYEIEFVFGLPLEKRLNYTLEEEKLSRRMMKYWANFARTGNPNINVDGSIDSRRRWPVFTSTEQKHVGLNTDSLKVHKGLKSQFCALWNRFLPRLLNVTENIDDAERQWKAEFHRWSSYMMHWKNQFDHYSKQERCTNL
Avidin from Gallus gallus egg white, Avi-pCBMA conjugate by solution synthesis, sequence (P02701 25-152): as the sequence (P02701 25-152) above

In the case of `O=C(O)c1ccccc1/N=N/c1ccc(O)cc1` [HABA, 4′-hydroxyazobenzene-2-carboxylic acid], the “Ratio of binding affinity of HABA (PARIS:solution)” value ([1]; Avi-pCBMA, PARIS:solution) is reported as 1.01 ± 0.14, the “Bound HABA” value ([1]; PARIS Avi-pCBMA, 1 minute, room temperature, [Avi]0 = 2 μM, ε500 = 34000 M^−1) is reported as 0.93 ± 0.13 µM and the “Bound HABA” value [2] is reported as 0.92 ± 0.04 µM.
“α-Chymotrypsin (CT) from bovine pancreas (type II), native (Bos taurus)” gave a Km [3] of 80.3 ± 13.1 µM, a kcat [3] of 34.6 ± 1.4 s⁻¹ and a kcat/Km [3] of 431000 ± 72000 M⁻¹ s⁻¹.
In the case of `CC(=O)SCC[N+](C)(C)C.[I-]` [acetylthiocholine iodide, Acetylthiocholine iodide], the “Ratio of enzymatic efficiency (PARIS:solution)” value [4] is reported as 1.09 ± 0.08.
